The values that follow come from article PMC6273431, “The Structure–Antimicrobial Activity Relationships of a Promising Class of the Compounds Containing the N-Arylpiperazine Scaffold” (Molecules, 2016).

Where two headings read alike, the source gives them in different places.

On the set-up of data set [1]: method as in PMID 16209439, PMID 16209439, doi:10.2478/s11696-006-0007-y. The following applies: octan-1-ol/phosphate buffer (pH = 7.4); cited from earlier work.
In data set [2] the test system is Candida parapsilosis CCM 8260. Nature of the data set: candidacidal MIC, microdilution method. The following applies: Lodderomyces parapsilosis, CCM8260, 48 h, 37 °C. It is filed as cell-based. For orientation: Broth dilution looks for growth in wells or tubes with falling amounts of substance.
Data set [3] deals with Candida albicans CCM 8261. The experiment in a line: candidacidal MIC, microdilution method. The following applies: Candida albicans, CCM8261, 48 h, 37 °C. It is filed as cell-based.
For another data set, the system named is Candida krusei CCM 8271. The experiment in a line: candidacidal MIC, microdilution method. It is filed as cell-based. As to conditions: Pichia kudriavzevii, CCM8271, 48 h, 37 °C.
Data set [4] relates to Staphylococcus aureus ATCC 29213. Nature of the data set: antibacterial MIC, microtitration broth method. It is filed as cell-based. As to conditions: 37 °C.
For data set [5], the system named is Enterococcus faecalis ATCC 29212. The experiment in a line: antibacterial MIC, microtitration broth method. Format: cell-based. As to conditions: 37 °C.
Data set [6] has as its system Escherichia coli ATCC 25922. The experiment in a line: antibacterial MIC, microtitration broth method. It is filed as cell-based. The following applies: 37 °C.
The subject of data set [7] is methicillin-resistant Staphylococcus aureus 63718. The experiment in a line: antibacterial MIC, microtitration broth method. The following applies: MRSA, 37 °C. Format: cell-based.
For a further data set, the system named is M. kansasii DSM 44162. The experiment in a line: antimycobacterial MIC, broth dilution micromethod. It is filed as cell-based. As to conditions: Mycobacterium kansasii, DSM44162, 168 h, 7 days at 37 °C.
The subject of a further data set is M. smegmatis ATCC 700084. The experiment in a line: antimycobacterial MIC, broth dilution micromethod. Format: cell-based. As to conditions: Mycolicibacterium smegmatis, ATCC700084, 72 h, 3 days at 37 °C.
Details of data set [8]: method as in PMID 16209439, PMID 16209439. The following applies: potentiometric titration; cited from earlier work.
For a further data set, the system named is M. marinum CAMP 5644. Nature of the data set: antimycobacterial MIC, broth dilution micromethod. It is filed as cell-based. The following applies: Mycobacterium marinum, CAMP5644, 504 h, 21 days at 28 °C.
Data set [9] concerns Mycobacterium avium subsp. paratuberculosis CIT03. Nature of the data set: antimycobacterial MIC, MB broth, alamarBlue. It is filed as cell-based. As to conditions: 264 h, read-out: MIC MAP. The gist of the method:
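Strain grown in Middlebrook broth with OADC and mycobactin J (2 μg/mL), inoculum from McFarland No. 1 diluted 1:20. Compounds at final 1000-60 μg/mL in triplicate, 11 days at 37 °C, then alamarBlue for 24 h; MIC is lowest concentration preventing blue-to-pink change.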

Regarding `CCOc1cccc(NC(=O)OCC(O)CN2CCN(c3ccc(F)cc3)CC2)c1.Cl` (stereo not drawn) [Compound 5j, 1-[3-(3-ethoxyphenylcarbamoyl)oxy-2-hydroxypropyl]-4-(4-fluorophenyl)piperazin-1-ium chloride], in data set [1], the “log Pexp” value is listed as 3.59. For the same molecule, the MIC in data set [2] is over 282 µM; in data set [2] (Table S4), over 128 µg/mL; in [3], over 282 µM; in [3] (Table S4), over 128 µg/mL; with Candida krusei CCM 8271 it was over 282 µM; with Candida krusei CCM 8271 (Table S4), over 128 µg/mL. In addition, the MIC in [4] (ATCC29213, 24 h) is over 564 µM; in data set [4] (ATCC29213, Table S4, 24 h), over 256 µg/mL; in data set [5] (ATCC29212, 24 h) it was over 564 µM; in [5] (ATCC29212, Table S4, 24 h), over 256 µg/mL; in data set [6] (ATCC25922, 24 h) it was over 564 µM; in data set [6] (ATCC25922, Table S4, 24 h), over 256 µg/mL. Moreover, the minimal inhibitory concentration (MIC) in data set [7] (24 h) is over 564 µM; in [7] (Table S4, 24 h), over 256 µg/mL; in the data set with M. kansasii DSM 44162 it was 17.6 µM; in the data set with M. kansasii DSM 44162 (Table S3), 8 µg/mL; in the data set on M. smegmatis ATCC 700084, 282 µM; in the data set on M. smegmatis ATCC 700084 (Table S3), 128 µg/mL. Besides, the minimal inhibitory concentration (MIC) was determined as 141 µM against M. marinum CAMP 5644; 64 µg/mL in the data set with M. marinum CAMP 5644 (Table S3); 551 µM in data set [9] (37 °C, 11 days); 250 µg/mL in [9]. Further, the pKa in [8] is recorded as 6.31.

Turning to `CCOc1ccccc1NC(=O)OCC(O)CN1CCN(c2cccc(C(F)(F)F)c2)CC1` (stereo not drawn) [Compound 5b], the “log Pexp” value in data set [1] is on record as 3.60. For the same molecule, the MIC was over 254 µM in data set [2]; over 128 µg/mL in data set [2] (Table S4); over 254 µM in data set [3]; over 128 µg/mL in data set [3] (Table S4); over 254 µM in the data set with Candida krusei CCM 8271; over 128 µg/mL in the data set on Candida krusei CCM 8271 (Table S4). In addition, the minimal inhibitory concentration (MIC) in data set [4] (ATCC29213, 24 h) is over 508 µM; in data set [4] (ATCC29213, Table S4, 24 h) it was over 256 µg/mL; in data set [5] (ATCC29212, 24 h), over 508 µM; in data set [5] (ATCC29212, Table S4, 24 h), over 256 µg/mL; in data set [6] (ATCC25922, 24 h), over 508 µM; in data set [6] (ATCC25922, Table S4, 24 h), over 256 µg/mL. The minimum inhibitory concentration (MIC) in data set [7] (24 h) was over 508 µM; in [7] (Table S4, 24 h), over 256 µg/mL; against M. kansasii DSM 44162 it was 127 µM; against M. kansasii DSM 44162 (Table S3), 64 µg/mL; with M. smegmatis ATCC 700084 it was 508 µM; against M. smegmatis ATCC 700084 (Table S3) it was 256 µg/mL. Besides, the MIC was determined as 127 µM against M. marinum CAMP 5644; 64 µg/mL with M. marinum CAMP 5644 (Table S3); 1980 µM in [9] (37 °C, 11 days); 1000 µg/mL in data set [9]. The pKa in data set [8] was 6.00.

Usually MIC stands for the least concentration at which growth counts as inhibited. As usually defined, the pKa is the negative logarithm of the acid dissociation constant.
